Test [1] deals with major pheromone-binding protein (AtraPBP). The test can be described thus: Binding assays with recombinant olfactory proteins. On the set-up: species or system navel orangeworm, A. transitella. The following applies: preliminary screening of ligands. The source says: Synthetic pheromone compositions can be conveniently tested in the assays described below. For example, the synthetic pheromone compositions of the present invention can be tested.to determine affinity for a pheromone-binding protein (AtraPBP) present in the navel orangeworm. Alternatively, the compositions can be tested for the ability to stimulate the olfactory receptor neurons (ORNs) in the insect's sensilla trichodea producing a response that indicates the presence or absence of a pheromone. In a typical embodiment, the compositions stimulate an electroantennogram response from an insect pest antenna, as described below.
Results. A comprehensive approach was taken in studying chemical communication in the navel orangeworm, A. transitella. Pheromone- and odorant-binding proteins were isolated, cloned, and expressed.

The test system of test [2] is male moth antennae (navel orangeworm). Kind of test: GC-EAD using male navel orangeworm antennae as sensing element. On the set-up: species or system Amyelois transitella. The following applies: for EAD activity of natural constituent: peaks in female pheromone gland extract or its fractions; for EAD activity of synthetic or authentic compound: synthetic standard. The procedure:
General. Gas chromatography-mass spectrometry (GC-MS), described in Examples 1-6, was obtained with a 5973 Network Mass Selective Detector linked to a 6890 Network GC System (Agilent Technologies, Palo Alto, Calif.) operated either in the electron impact (EI) or chemical ionization (CI) mode. Chromatographic resolution was done on an HP-5MS column (30 m×0.25 mm; 0.25 μm; Agilent) that was operated at 70° C. for 1 min, increased to 250° C. at a rate of 10° C./min and held at this temperature for 10 min. Vapor phase infrared spectroscopy was carried out on a Win GC/IR Pro (Varian Inc., formerly Digilab, Randolph, Mass.) with a GC/IR interface and a Scimitar FTS 2000 linked to a 6890 Network GC System (Agilent). Separation was done on a HP-5 column (30 m×0.32 mm; 0.25 μm; Agilent) operated at 100° C. for 1 min, increased to 250° C. at a rate of 20° C./min and held at this temperature for 5 min; the transfer line and light pipe were operated at 250° C. Gas chromatography with electroantennographic detection (GC-EAD) was done with two different systems: HP 5890 and HP 6890 (Agilent) both having Syntech's GC-EAD transfer lines and temperature control units (Hilversum, The Netherlands). In both systems, the effluent from the capillary column was split into EAD and flame ionization detector (FID) in 3:1 ratios. Male antennae were placed in EAG probes (Syntech) and held in place with Spectra 360 electrode gel (Parker Laboratories, Orange, N.J.). These probes were connected to AM-01 amplifiers (Syntech). The analog signals were fed into A/D 35900E interfaces (Agilent) and acquired simultaneously with FID signal on an Agilent Chemstation. Chromatographic separations were done either with HP-5MS column operated as in GC-MS or with HP-INNOWAX column (30 m×0.32 mm; 0.25 μm; Agilent) operated at 70° C. for 1 min, increased to 250° C. at a rate of 10° C./min and held at this temperature for 5 min.
Gas chromatography coupled with an electroantennographic detector (GC-EAD) using male moth antennae as the sensing element was used to determine the active constituents in these SSR-active fractions (3% and hexane). […] The peaks were numbered in the order of their retention times (tR) in a non-polar column (1: tR, 17.30 min; 2: 18.44 min; 3: 18.96 min; 4: 19.08 min; 5: 20.9 min; 6: 23.8 min). The retention times of these EAD-active peaks in a polar column (HP-INNOWAX) were: 16.59, 17.37, 18.32, and 18.72 min (3% fraction) and 18.52 and 20.22 min (hexane fraction).
Pheromone glands were individually dissected out of >2,000 virgin female NOW, and the glands were extracted in −250 microliters of pentane in composite batches of −250-300 glands per extract. The extracts were screened by GC-EAD analysis to locate the compounds which elicited responses from male antennae (i.e., potential pheromone compounds). The extracts were then concentrated to ˜10-20 microliters, and aliquots were analyzed on several GC columns with different polarity, by coupled GC-mass spectrometry, and by coupled GC-Fourier transform infrared spectrometry. A parallel set of studies was conducted with composite pheromone gland extracts prepared from Pyralis females. A subset of the extracts were also combined and fractionated by liquid chromatography, to provide samples for wind tunnel tests.

Test [3] concerns olfactory receptor neurons (ORN) in sensilla trichodea of male moth antennae. The test can be described thus: Single sensillum recordings (SSR) from sensilla trichodea. On the set-up: species or system Amyelois transitella. The source says: Single sensillum recordings (SSR). Male moths were immobilized with dental wax on the recording stage of a single sensillum recording unit (Syntech, INR-02), the tip of the sensilla were cut (Kaissling, K. E. Single unit and electroantennogram recordings in insect olfactory organs, In: Spielman A. I., Brand J. G. (ed) Experimental Cell Biology of Taste and Olfaction: Current Techniques and Protocols, CRC Press, Boca Raton, pp.361-386 (1995)) and placed under a stereomicroscope (SZX12,Olympus, Tokyo, Japan). The indifferent (ground) electrode was a thin tungsten electrode inserted into the head. The recording glass electrode was slipped over the cut tip of the sensilla with a Piezo Manipulator (PM-10, World Precision Instruments, Sarasota, Fla.) while the signal was monitored with a Tektronix oscilloscope (TDS-2014). The pre-amplified signal was acquired with an acquisition system (IDAC-USB, Syntech) and SSR software (Autospike 2000, Syntech). The antennal preparation was continuously flushed with clean air at 0.5 m/s. Each stimulus was applied to a filter paper, dried at least 10 min, and placed within a glass cartridge (7 mm i.d.; 5 cm long). The cartridge opening was placed 1 cm in front of the antennae. The stimulus air was delivered by a stimulus controller (CD-02/E, Syntech).

Another test relates to navel orangeworm. Kind of test: Field trap tests, UC Davis, navel orangeworm captures. Particulars: 0.5 mg lure, 3-wk period. It counts as in vivo, Amyelois transitella. The procedure: (§1) Experimental. Tests were conducted in almond and walnut plot fields in the UC Davis campus. Pheromone samples (0.5 mg) were formulated in rubber septa or in 12 mm diameter, 3 mm thick discs (made of ES fiber, Chisso Co. Ltd, Tokyo, Japan) and loaded into Pherocon 1C traps (Trece Inc., Salinas, Calif.). Three or five 1 to 3-day old virgin females were placed in fiberglass screen cages (Curtis, C. E. and Clark, J. D., J Econ Entomol 77:1057-1061 (1984) Curtis et al., J Econ Entomol 78:1425-1430 (1985)). Baited and control traps were placed at ca. 1.8 m height in randomized blocks with the intertrap distance of ca. 10 m. Capture data were transformed to log (x+0.5) and analyzed by ANOVA. […] Means of captures are untransformed, and error bars show one standard error (SE).

In another test the test system is NOW males. The test can be described thus: Wind tunnel bioassays of male NOW flight responses. It counts as in vivo, Amyelois transitella. The procedure: Flight responses of male NOW to different blends and doses of synthesized pheromone components were tested in the ARS wind tunnel. Males were 2-3 days old and were used during the last two hours of shotophase (dark cycle). The wind tunnel room was maintained at 23-26° C. with >35% relative humidity. NOW males were placed in individual aluminum-screen cages during their 1st or 2nd photophase and then held in an incubator until one hour prior to testing, when they were transferred from their dark incubator to the wind tunnel. […] After conditioning to ambient conditions in the wind tunnel for one hour, males were assayed individually to test compounds formulated on 1cm dia. filter paper disks. Information recorded included the number of males per trial that reached the pheromone source, the time to reach the pheromone source, and observations of the flight behavior (e.g., relatively straight flight; looping flight; veering out of the pheromone plume, etc.)
Subsequent wind tunnel tests were evaluated on quantitative as well as qualitative responses of NOW males to test formulations. All treatments were applied to 1 cm filter paper disks in at least 25 ul of hexane, to fully “wet” the paper surface, and at least 5 males were tested individually to each pheromone blend.

For the next test, the system named is meal moth. Kind of test: Field trap tests, UC Davis, meal moth captures. It counts as in vivo, Pyralis farinalis. The following applies: for catches of meal moth in traps baited with virgin female navel orangeworm plus added compound: synthetic sample 0.5 mg per device added. The procedure: as §1
Test [4] concerns antennae of male meal moth. Kind of test: GC-EAD using male meal moth antennae. Further details: species or system Pyralis farinalis. The procedure:
General. Gas chromatography-mass spectrometry (GC-MS), described in Examples 1-6, was obtained with a 5973 Network Mass Selective Detector linked to a 6890 Network GC System (Agilent Technologies, Palo Alto, Calif.) operated either in the electron impact (EI) or chemical ionization (CI) mode. Chromatographic resolution was done on an HP-5MS column (30 m×0.25 mm; 0.25 μm; Agilent) that was operated at 70° C. for 1 min, increased to 250° C. at a rate of 10° C./min and held at this temperature for 10 min. Vapor phase infrared spectroscopy was carried out on a Win GC/IR Pro (Varian Inc., formerly Digilab, Randolph, Mass.) with a GC/IR interface and a Scimitar FTS 2000 linked to a 6890 Network GC System (Agilent). Separation was done on a HP-5 column (30 m×0.32 mm; 0.25 μm; Agilent) operated at 100° C. for 1 min, increased to 250° C. at a rate of 20° C./min and held at this temperature for 5 min; the transfer line and light pipe were operated at 250° C. […]
Pheromone glands were individually dissected out of >2,000 virgin female NOW, and the glands were extracted in −250 microliters of pentane in composite batches of −250-300 glands per extract. […] The extracts were then concentrated to ˜10-20 microliters, and aliquots were analyzed on several GC columns with different polarity, by coupled GC-mass spectrometry, and by coupled GC-Fourier transform infrared spectrometry. […]

Consider `CC/C=C\C=C/CCCCCCCCCC=O` (single isomer, unassigned) [Compound 1, (Z,Z)-11,13-hexadecadienal], for which the “affinity to AtraPBP” value in test [1] is “apparent high affinity”. The “EAD activity of natural constituent” value in test [2] is “EAD-active”; in test [2] (listed as (Z,Z)-1), “strongest EAD-active peak”. The “SSR response of olfactory receptor neurons” value in test [3] is recorded as “large spike amplitude cells (FIG. 1A) were activated”. Moreover, in the test on navel orangeworm, the “captures of male navel orangeworm in baited traps” value was “captured no moths”. For the same compound, the “male NOW response in wind tunnel” value in the test on NOW males (synthesized standards and crude extract) is given as “no test males responded”. In the case of `CCCCCCCCCCCCCCCC(=O)OCC` (single isomer, unassigned) [Compound 2, ethyl palmitate], in test [2], the “EAD activity of natural constituent” value was “EAD-active”. Consider `CC/C=C\C=C/CCCCCCCCCC(=O)OCC` (single isomer, unassigned) [Compound 3, ethyl (Z,Z)-11,13-hexadecadienoate], for which, in test [2], the “EAD activity of natural constituent” value is recorded as “EAD-active” and the “EAD activity of synthetic or authentic compound” value is “EAD active”.

Consider `CC/C=C\C=C/CCCCCCCCCCOC(C)=O` (single isomer, unassigned) [Compound 4, (Z,Z)-11,13-hexadecadien-1-yl acetate], for which, in test [2], the “EAD activity of natural constituent” value is on record as “EAD-active”. Further, the “catches of meal moth in traps baited with virgin female navel orangeworm plus added compound” value in the test with meal moth was “completely shut off”. In the case of `CC/C=C\C/C=C\C/C=C\C/C=C\C/C=C\CCCCCCC` (single isomer, unassigned) [Compound 5, (Z,Z,Z,Z,Z)-3,6,9,12,15-tricosapentaene], in test [2], the “EAD activity of natural constituent” value is “EAD-active”. Turning to `CC/C=C\C/C=C\C/C=C\C/C=C\C/C=C\CCCCCCCCC` (single isomer, unassigned) [Compound 6, (Z,Z,Z,Z,Z)-3,6,9,12,15-pentacosapentaene], in test [2], the “EAD activity of natural constituent” value is given as “EAD-active”. `CC/C=C/C=C/CCCCCCCCCC=O` [(E,E)-1]: the “SSR response of olfactory receptor neurons” value in test [3] is given as “activated mainly a small spike ORN, with small activation of a large spike cell”. `CC/C=C\C=C\CCCCCCCCCC=O` [(E,Z)-1, E,Z-11,13-hexadecadienal]: in test [2], the “EAD activity of natural constituent” value is recorded as “small EAD-active peaks”.

As to `CC/C=C/C=C\CCCCCCCCCC=O` [(Z,E)-1, Z,E-11,13-hexadecadienal], the “EAD activity of natural constituent” value in test [2] is “small EAD-active peaks”. With `CC/C=C\C=C/CCCCCCCCCCOC(C)=O` [(Z,Z)-11,13-hexadecadien-1-yl acetate], in test [2], the “EAD activity of synthetic or authentic compound” value is on record as “same electrophysiological activity as the natural product”. Also, the “effect of removing the compound from the full mixture on meal moth captures” value in the test with meal moth (partial mixtures) is given as “increased dramatically captures of male meal moth”. For the same compound, the “catches of meal moth in traps baited with virgin female navel orangeworm plus added compound” value in the test with meal moth was “complete lack of captures”. Turning to `CC/C=C\C/C=C\C/C=C\C/C=C\C/C=C\CCCCCCC` [(Z,Z,Z,Z,Z)-3,6,9,12,15-tricosapentaene], in test [2] (NOW gland extract screened by GC-EAD), the “share of NOW antennal preparations with detectable response” value is reported as “about half”. The “EAD activity of natural constituent” value in test [2] was “much weaker response”. Moreover, the “EAD response of male meal moth antennae” value in test [4] is recorded as “consistently elicited responses from the male antennae”.

Take `CC/C=C\C=C/CCCCCCCCCCO` [Z11,Z13-16:OH, Z,Z-11,13-hexadecadien-1-ol]: the “effect of adding the compound to the blend of Z11,Z13-16:Ald with tricosapentaene” value in the test on NOW males (wind tunnel) is recorded as “further enhanced attraction”. As for `CCCCCCCCCCCCCCCC(=O)OCC` [ethyl palmitate], in test [2], the “EAD activity of synthetic or authentic compound” value is reported as “EAD activity”.

The values above are taken from patent US7655253B2, “Navel orangeworm pheromone composition” (Bedoukian Research, Inc., priority 2004, dated 2010).
